From US20260335323A1, “CHIMERIC MOLECULE” (UCL Business Ltd, priority 2023, published 2026)

Experiments:
[1] = tested on: Mfn2; test: Western blot, Mfn2 degradation in MEF WT; type: cell-based, mouse; conditions: MEF WT
Procedure: (§1) FIG. 6. ULKTACs rely on ULK1 for the redirection of autophagy components to mitochondria and subsequent mitophagic degradation (A) Western blot of mouse embryonic fibroblasts (MEF) WT and MEF ULK1/2^−/− treated with 1 mM ULKTACs, 5 mM CCCP or both and probed for ULK1, Mfn2 and Actin—quantification of the relative intensity of Mfn2 shown in (B), normalised to Actin. Representative immunofluorescence of MEF WT (C) and MEF ULK1/2^−/− (D) treated with 5 mM CCCP, 1 mM ULKTACs or both and immunostained for Alexa 488 ATP5a and Alexa 647 LC3B. Quantification of the colocalised LC3 to ATP5a spot area shown in WT vs ULK1/2^−/− treated MEF cells shown in (E). Data shown are mean±SEM, n=3, *p<0.05, ** p<0.01, *** p<0.001, Two-way ANOVA with Tukey's multiple comparisons test.
Cells were homogenised in protein lysis buffer consisting of 0.1 M Tris pH 8.0, 0.1 M NaCl, 5% glycerol, IGEPAL® CA-630 (#18896. Sigma-Aldrich) and 5 mM EDTA, 0.1 M N-ethyl maleimide (ThermoFisher, #23030) and protease inhibitor (Cell Signalling Technologies, #5871). Protein concentrations were determined using the BCA assay to ensure equal loading. […] The membranes were immunoblotted with primary antibodies, overnight at 4° C. ULK1 (D8H5) Rabbit mAb (#0854) [1:1000], Phospho-ULK1 (Ser 317) Rabbit antibody (#37762) [1:1000], LC3B Rabbit antibody (#2775) [1:1000], TOM20 (D8T4N) Rabbit mAb (#42406) [1:1000] and, Phospho-Ubiquitin (Ser 65) (E2J6T) Rabbit mAb (#62082) [1:500] were obtained from Cell Signalling Technologies. Recombinant Anti-Vinculin Rabbit antibody (EPR8185) (#ab129002) [1:5000] and Anti-Mitofusin2 mouse antibody (6A8) (#ab56889) [1:1000] were purchased from Abcam. Anti-Actin mouse monoclonal antibody (#A1978) [1:1000] and Anti-rabbit p62/SQSTM1 (#P0067) [1:1000], were purchased from Sigma-Aldrich. Mono- and polyubiquitinylated conjugates monoclonal antibody (FK2) (BML-PW8810-0100) [1:500] was purchased from Enzo Life Sciences. Anti BRD4 (E2A7X) rabbit monoclonal antibody (#13440), Anti c-MYC (D84C12) rabbit monoclonal antibody (#5605) [1:1000], Anti GAPDH (D4C6R) mouse monoclonal antibody (#97166) [1:1000], Anti Max (S20) rabbit monoclonal antibody (#4739) [1:1000] were purchased from Cell Signalling Technologies. Anti Phospho-CHK1 (Ser 345) rabbit monoclonal antibody (#2341) [1:1000], Anti gamma-H2AX (Ser 139) rabbit monoclonal antibody (#2577) [1:1000] were obtained from Cell Signalling Technologies, Anti RPA32/RPA2 (phospho S4/S8) rabbit monoclonal antibody (ab87277) [1:1000] were obtained from Abcam.
Membranes were then incubated with horseradish peroxidase (HRP)-conjugated secondary antibodies (Rabbit #7074 and Mouse #7076) purchased from Cell Signalling Technologies for 1 hour and the HRP signal was detected using EZ-ECL Enhanced Chemiluminescence Detection Kit for HRP (#20-500-500, Sartorius), and imaged with an Alliance Q9 Advanced (UVITec). Where required, membranes were stripped with mild stripping buffer consisting of 0.2 M glycine, 3.47 mM SDS, 1% Tween 20, pH 2.2, blocked for 1 hour with TBS-T+3% BSA and re-probed with primary antibodies.
Therefore, we conclude that NZ-65 and NZ-66 are novel ULKTAC molecules that initiate the recruitment of ULK1 to mitochondria, leading to an increase in local ULK1 activity, the formation of an autophagosome and mitophagy.

[2] = tested on: LC3; test: ATP5a/LC3 co-localisation immunofluorescence in MEF ULK1/2-/-; type: cell-based, mouse; conditions: ULK1/2-/- cells
Procedure: as §1
For TOM20/ULK1 immunofluorescence, cells were seeded in a 384 well PerkinElmer CellCarrier Ultra plate 24 hours prior to treatment with compounds. Cells were treated for 18 hours after which they were fixed with 4% paraformaldehyde (PFA) in phosphate buffered saline (PBS) and blocked with 10% FBS and 0.1% Triton in PBS. Plates were incubated at 4° C. overnight, with 1:400 mouse anti-TOM20 (Santa Cruz, #sc-17764) and 1:400 rabbit anti-ULK1 (Cell Signalling Technologies, #0854). […]

Compound | degradation of Mfn2 ([1]; co-treatment with CCCP) | degradation of Mfn2 ([1]; compound alone) | co-localisation of ATP5a with LC3 [2]
O=C(Nc1cc(C(F)(F)F)cc(C(F)(F)F)c1)N[C@@H](C(=O)Nc1ccc(F)cc1F)c1ccc(OCc2cn(CCOCCOCCNC(=O)C(=O)c3c(-c4ccccc4)[nH]c4ccccc34)nn2)cc1 [NZ-65, (R)-2-(3-(3,5-bis(trifluoromethyl)phenyl)ureido)-N-(2,4-difluorophenyl)-2-(4-((1-(2-(2-(2-(2-oxo-2-(2-phenyl-1H-indol-3-yl)acetamido)ethoxy)ethoxy)ethyl)-1H-1,2,3-triazol-4-yl)methoxy)phenyl) acetamide] | further enhanced by co-treatment with CCCP | degradation of Mfn2 | absent
O=C(Nc1cc(C(F)(F)F)cc(C(F)(F)F)c1)N[C@@H](C(=O)Nc1ccc(F)cc1F)c1ccc(OCc2cn(CCCCCCNC(=O)C(=O)c3c(-c4ccccc4)[nH]c4ccccc34)nn2)cc1 [NZ-66, (R)-2-(3-(3,5-bis(trifluoromethyl)phenyl)ureido)-N-(2,4-difluorophenyl)-2-(4-((1-(6-(2-oxo-2-(2-phenyl-1H-indol-3-yl)acetamido)hexyl)-1H-1,2,3-triazol-4-yl)methoxy)phenyl) acetamide] | further enhanced by co-treatment with CCCP | degradation of Mfn2 | absent
